Data: publication PMC6035239, “Glycan recognition in globally dominant human rotaviruses” (Nature Communications, 2018)

Molecular target: T1, P[6] RV3 VP8* (Human rotavirus A, UniProt D7F7M7)
T1 construct: VP8* domain, N-terminal fragment of spike protein VP4 (polyprotein-like precursor cleaved by trypsin); N-terminal GST tag removed with thrombin; E. coli BL21(DE3)
Assay: 2D 1H-15N HSQC NMR titration, global fit of […] peaks
Assay type: binding
Settings: 70 μM 15N-labeled protein, 0.5-20 mM ligand; 10 mM sodium phosphate, 50 mM NaCl, 10% D2O, pH 7; crystal structure and STD NMR also done

For `CC(=O)N[C@H]1[C@H](O[C@H]2[C@@H](O)[C@@H](CO)O[C@@H](O[C@H]3[C@H](O)[C@@H](O)C(O)O[C@@H]3CO)[C@@H]2O)O[C@H](CO)[C@@H](O)[C@@H]1O[C@@H]1O[C@H](CO)[C@H](O)[C@H](O)[C@H]1O[C@@H]1O[C@@H](C)[C@@H](O)[C@@H](O)[C@@H]1O` (stereo partly shown) [LNFP1], the Kd was 7.1 ± 0.2 mM.
